Reference: patent US8937077B2, “Bicyclic diamines as janus kinase inhibitors” (Merck Sharp & Dohme Corp., priority 2010, dated 2015)
Where two headings read alike, the source gives them in different places.

Target: T1, Jak1 (Homo sapiens, UniProt P23458)
T1 construct: using a recombinant purified GST-tagged catalytic domain for each enzyme; GST; purchased Invitrogen M4290
Assay: Jak Biochemical HTRF Assay (Jak1)
Details: recombinant GST-tagged catalytic domain
Method in brief: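 Recombinant GST-tagged Jak1 catalytic domain was preincubated with compound and peptide substrate for 30 min at room temperature, and the reaction was then started with ATP and run 120 min. Buffer contained 2 mM DTT and 0.05% BSA. Read-out was HTRF (665/615 nm) with Eu-pY20 antibody and streptavidin-Dylight, and IC50 values came from 4-parameter fits of percent inhibition.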

[1] = IC50 class, read-out: Jak1 activity
[2] = 31.8 μM ATP, read-out: Representative IC50 values

T1 sequence (P23458 875-1153 limits assumed): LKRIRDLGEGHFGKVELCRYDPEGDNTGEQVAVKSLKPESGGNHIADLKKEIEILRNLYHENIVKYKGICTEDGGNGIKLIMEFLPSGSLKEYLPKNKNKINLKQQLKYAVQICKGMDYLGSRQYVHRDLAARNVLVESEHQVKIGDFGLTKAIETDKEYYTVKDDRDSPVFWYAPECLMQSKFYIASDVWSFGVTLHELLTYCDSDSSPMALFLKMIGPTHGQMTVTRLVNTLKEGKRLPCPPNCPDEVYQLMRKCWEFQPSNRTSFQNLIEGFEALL

Row | Structure (SMILES) | IC50 [1] | IC50 [2]
1 | CN(C)CCOC(=O)N1CCC[C@@H]2[C@H]1CCN2c1ncnc2[nH]ccc12 (single isomer, unassigned) [Example 3-38] | 100 to 1000 nM | –
2 | O=C(O)c1ccc(CNC(=O)N2CCC[C@@H]3[C@H]2CCN3c2ncnc3[nH]ccc23)cc1 [Example 25, 4-[({[(3aR,7aR)-1-(7H-pyrrolo[2,3-d]pyrimidin-4-yl)octahydro-4H-pyrrolo[3,2-b]pyridin-4-yl]carbonyl}amino)methyl]benzoic acid] | 100 to 1000 nM | –
3 | CC(C)S(=O)(=O)N1CCC[C@@H]2[C@H]1CCN2c1ncnc2[nH]ccc12 [Example 32-1, 4-{(3aR,7aR)-4-[(1-methylethyl)sulfonyl]octahydro-1H-pyrrolo[3,2-b]pyridin-1-yl}-7H-pyrrolo[2,3-d]pyrimidine] | 10 to 100 nM | –
4 | CCCCC(=O)N1CCCC2C1CCN2c1ncnc2[nH]ccc12 (racemic) [Example 29-2, 4-(4-pentanoyloctahydro-1H-pyrrolo[3,2-b]pyridin-1-yl)-7H-pyrrolo[2,3-d]pyrimidine] | 10 to 100 nM | –
5 | O=S(=O)(CCc1ccccc1)N1CCC[C@@H]2[C@H]1CCN2c1ncnc2[nH]ccc12 [Example 32-2, 4-{(3aR,7aR)-4-[(2-phenylethyl)sulfonyl]octahydro-1H-pyrrolo[3,2-b]pyridin-1-yl}-7H-pyrrolo[2,3-d]pyrimidine] | 1 to 10 nM | 7 nM
6 | O=C(OCCc1ccccc1)N1CCCC2C1CCN2c1ncnc2[nH]ccc12 (stereo not shown) [Example 3-8, 2-phenylethyl 1-(7H-pyrrolo[2,3-d]pyrimidin-4-yl)octahydro-4H-pyrrolo[3,2-b]pyridine-4-carboxylate] | 10 to 100 nM | –
7 | O=C(OCc1cccnc1)N1CCCC2C1CCN2c1ncnc2[nH]ccc12 [Example 3-1, (3aS,7aS and 3aR,7aR) pyridin-3-ylmethyl 1-(7H-pyrrolo[2,3-d]pyrimidin-4-yl)octahydro-4H-pyrrolo[3,2-b]pyridine-4-carboxylate] | 10 to 100 nM | –
8 | O=C(C1CCCCC1)N1CCC[C@@H]2[C@H]1CCN2c1ncnc2[nH]ccc12 [Example 29-15, 4-[(3aR,7aR)-4-(cyclohexylcarbonyl)octahydro-1H-pyrrolo[3,2-b]pyridin-1-yl]-7H-pyrrolo[2,3-d]pyrimidine] | 10 to 100 nM | –
9 | O=C(OC(CCN1CCOCC1)c1ccccc1)N1CCC[C@@H]2C1CCN2c1ncnc2[nH]ccc12 (mixture of isomers) [Example 8-3, (1R and 1S)-3-(morpholin-4-yl)-1-phenylpropyl (3aR,7aR)-1-(7H-pyrrolo[2,3-d]pyrimidin-4-yl)octahydro-4-pyrrolo[3,2-b]pyridine-4-carboxylate] | 100 to 1000 nM | –
10 | O=C(CO)N1CCCC2C1CCN2c1ncnc2[nH]ccc12 [Example 17, (3aS,7aS and 3aR,7aR) 2-hydroxy-1-[1-(7H-pyrrolo[2,3-d]pyrimidin-4-yl)octahydro-4H-pyrrolo[3,2-b]pyridine-4-yl]ethanone] | 100 to 1000 nM | –
11 | O=C(c1cn2cccnc2n1)N1CCC[C@@H]2[C@H]1CCN2c1ncnc2[nH]ccc12 [Example 29-49, 4-[(3aR,7aR)-4-(imidazo[1,2-a]pyrimidin-2-ylcarbonyl)octahydro-1H-pyrrolo[3,2-b]pyridin-1-yl]-7H-pyrrolo[2,3-d]pyrimidine] | 100 to 1000 nM | 132 nM
12 | CC1CCN(Cc2ccccc2)C2CCN(c3ncnc4[nH]ccc34)C12 [Example 21, (3aS,7S,7aS and 3aR,7R,7aR) 4-(4-benzyl-7-methyloctahydro-1H-pyrrolo[3,2-b]pyridin-1-yl)-7H-pyrrolo[2,3-d]pyrimidine] | 10 to 100 nM | –
13 | O=C(OCCn1ccc2ccccc21)N1CCC[C@@H]2[C@H]1CCN2c1ncnc2[nH]ccc12 [Example 3-45, 2-(1H-indol-1-yl)ethyl (3aR,7aR)-1-(7H-pyrrolo[2,3-d]pyrimidin-4-yl)octahydro-4H-pyrrolo[3,2-b]pyridine-4-carboxylate] | 10 to 100 nM | –
14 | COC(=O)c1ccc(CCCN2CCC[C@@H]3[C@H]2CCN3c2ncnc3[nH]ccc23)cc1 [Example 13, methyl 4-{3-[(3aR,7aR)-1-(7H-pyrrolo[2,3-d]pyrimidin-4-yl)octahydro-4H-pyrrolo[3,2-b]pyridin-4-yl]propyl}benzoate] | 100 to 1000 nM | 169 nM
15 | O=C(OCC1CC1)N1CCC[C@@H]2[C@H]1CCN2c1ncnc2[nH]ccc12 [Example 3-31, cyclopropylmethyl (3aR,7aR)-1-(7H-pyrrolo[2,3-d]pyrimidin-4-yl)octahydro-4H-pyrrolo[3,2-b]pyridine-4-carboxylate] | 10 to 100 nM | –
16 | O=C(OC1CCCCC1)N1CCC[C@@H]2[C@H]1CCN2c1ncnc2[nH]ccc12 [Example 3-32, cyclohexyl (3aR,7aR)-1-(7H-pyrrolo[2,3-d]pyrimidin-4-yl)octahydro-4H-pyrrolo[3,2-b]pyridine-4-carboxylate] | 10 to 100 nM | 11 nM
17 | O=C(OCCCc1ccccc1)N1CCCC2C1CCN2c1ncnc2[nH]ccc12 (stereo not shown) [Example 3-7, 3-phenylpropyl 1-(7H-pyrrolo[2,3-d]pyrimidin-4-yl)octahydro-4H-pyrrolo[3,2-b]-pyridine-4-carboxylate] | 10 to 100 nM | –

Row | Structure (SMILES) | IC50 [1] | IC50 [2]
18 | O=C(OCc1ccccn1)N1CCCC2C1CCN2c1ncnc2[nH]ccc12 (stereo not shown) [Example 3-12, pyridin-2-ylmethyl 1-(7H-pyrrolo[2,3-d]pyrimidin-4-yl)octahydro-4H-pyrrolo[3,2-b]-pyridine-4-carboxylate] | 10 to 100 nM | –
19 | O=C(Cn1cc2ccccc2n1)N1CCC[C@@H]2[C@H]1CCN2c1ncnc2[nH]ccc12 [Example 29-54, 4-[(3aR,7aR)-4-(2H-indazol-2-ylacetyl)octahydro-1H-pyrrolo[3,2-b]pyridin-1-yl]-7H-pyrrolo[2,3-d]pyrimidine] | 100 to 1000 nM | –
20 | COc1ccc(CC(=O)N2CCCC3C2CCN3c2ncnc3[nH]ccc23)cc1 (stereo not shown) [Example 29-4, 4-{4-[(4-methoxyphenyl)acetyl]octahydro-1H-pyrrolo[3,2-b]pyridin-1-yl}-7H-pyrrolo[2,3-d]pyrimidine] | 10 to 100 nM | –
21 | Cc1cc2c(N3CCC4C3CCCN4C(=O)OCc3ccccc3)ncnc2[nH]1 [Example 15, (3aS,7aS and 3aR,7aR) benzyl 1-(6-methyl-7H-pyrrolo[2,3-d]pyrimidin-4-yl)octahydro-4H-pyrrolo[3,2-b]pyridine-4-carboxylate] | 10 to 100 nM | –
22 | CO[C@](C(=O)N1CCC[C@@H]2[C@H]1CCN2c1ncnc2[nH]ccc12)(c1ccccc1)C(F)(F)F [Example 18, (2S)-3,3,3-trifluoro-2-methoxy-2-phenyl-1-[(3aR,7aR)-1-(7H-pyrrolo[2,3-d]pyrimidin-4-yl)octahydro-4H-pyrrolo[3,2-b]pyridine-4-yl]propan-1 one] | 100 to 1000 nM | –
23 | CN1CCCC(CCC(=O)N2CCC[C@@H]3[C@H]2CCN3c2ncnc3[nH]ccc23)C1 (stereo partly drawn) [Example 29-55, 4-{(3aR,7aR)-4-[3-(1-methylpiperidin-3-yl)propanoyl]octahydro-1H-pyrrolo[3,2-b]pyridin-1-yl}-7H-pyrrolo[2,3-d]pyrimidine] | 100 to 1000 nM | –
24 | O=C(OCc1ccccc1F)N1CCC[C@@H]2[C@H]1CCN2c1ncnc2[nH]ccc12 [Example 3-33, 2-fluorobenzyl (3aR,7aR)-1-(7H-pyrrolo[2,3-d]pyrimidin-4-yl)octahydro-4H-pyrrolo[3,2-b]pyridine-4-carboxylate] | 1 to 10 nM | –
25 | O=C(OCCN1CCS(=O)(=O)CC1)N1CCC[C@@H]2[C@H]1CCN2c1ncnc2[nH]ccc12 [Example 3-27, 2-(1,1-dioxidothiomorpholin-4-yl)ethyl (3 aR,7 aR)-1-(7H-pyrrolo[2,3-d]pyrimidin-4-yl)octahydro-4H-pyrrolo[3,2-b]pyridine-4-carboxylate] | 100 to 1000 nM | –
26 | COC(=O)c1ccc(COC(=O)N2CCC[C@H]3[C@@H]2CCN3c2ncnc3[nH]ccc23)cc1 [Example 5, 4-(methoxycarbonyl)benzyl (3aS,7aS)-1-(7H-pyrrolo[2,3-d]pyrimidin-4-yl)octahydro-4H pyrrolo[3,2-b]pyridine-4-carboxylate] | 100 to 1000 nM | –
27 | O=C(c1cccc(Cl)c1)N1CCC[C@@H]2[C@H]1CCN2c1ncnc2[nH]ccc12 [Example 29-18, 4-{(3aR,7aR)-4-[(3-chlorophenyl)carbonyl]octahydro-1H-pyrrolo[3,2-b]pyridin-1-yl}-7H-pyrrolo[2,3-d]pyrimidine] | 10 to 100 nM | –
28 | CCC[C@H]1C[C@H]1C(=O)N1CCC[C@@H]2[C@H]1CCN2c1ncnc2[nH]ccc12 [Example 29-30, 4-[(3aR,7aR)-4-{[(1R,2S)-2-propylcyclopropyl]carbonyl}octahydro-1H-pyrrolo[3,2-b]pyridin-1-yl]-7H-pyrrolo[2,3-d]pyrimidine] | 10 to 100 nM | –
29 | O=C(OCCF)N1CCC[C@@H]2[C@H]1CCN2c1ncnc2[nH]ccc12 (single isomer, unassigned) [Example 3-30] | 10 to 100 nM | –
30 | CN(C)C(=O)c1ccc(COC(=O)N2CCC[C@@H]3[C@H]2CCN3c2ncnc3[nH]ccc23)cc1 [Example 7-1, 4-(dimethylcarbamoyl)benzyl (3aR,7aR)-1-(7H-pyrrolo[2,3-d]pyrimidin-4-yl)octahydro-4H-pyrrolo[3,2-b]pyrindine-4-carboxylate] | 100 to 1000 nM | –
31 | O=C(OCc1ccccc1)N1CCCC2C1CCN2c1ccnc2[nH]ccc12 [Example 30, (3aS,7aS and 3aR,7aR) benzyl 1-(1H-pyrrolo[2,3-b]pyridine-4-yl)octahydro-4H-pyrrolo[3,2-b]pyridine-4-carboxylate] | 100 to 1000 nM | –
32 | O=C(c1cccc2cnccc12)N1CCC[C@@H]2[C@H]1CCN2c1ncnc2[nH]ccc12 [Example 29-37, 5-{[(3aR,7aR)-1-(7H-pyrrolo[2,3-d]pyrimidin-4-yl)octahydro-4H-pyrrolo[3,2-b]pyridin-4-yl]carbonyl}isoquinoline] | 10 to 100 nM | –
33 | O=C(C1COc2ccccc2O1)N1CCC[C@@H]2[C@H]1CCN2c1ncnc2[nH]ccc12 (stereo partly drawn) [Example 29-38, 4-[(3aR,7aR)-4-(2,3-dihydro-1,4-benzodioxin-2-ylcarbonyl)octahydro-1H-pyrrolo[3,2-b]pyridin-1-yl]-7H-pyrrolo[2,3-d]pyrimidine] | 10 to 100 nM | –
